≈ marks a conversion by molar mass, not a printed value.
How the values were obtained:
[1] = system: A. baumannii CDC-0045; assay: microbe, parasite or virus in culture; format: cell-based; conditions: Acinetobacter baumannii, CDC0045, read-out: MIC, A. baumannii CDC-0045
[2] = system: N. gonorrhoeae ATCC 49226; assay: Liquid broth MIC in Fastidious broth; conditions: Neisseria gonorrhoeae, ATCC49226, read-out: Minimum Inhibitory Concentration, ATCC 49226
[3] = system: P. aeruginosa ATCC 27853; assay: microbe, parasite or virus in culture; format: cell-based; conditions: Pseudomonas aeruginosa, ATCC27853, read-out: Minimum inhibitory concentration, P. aeruginosa ATCC 27853
[4] = target: T1, PBP3 from Escherichia coli (K-12) (Escherichia coli, UniProt P0AD68); assay: Bocillin-FL fluorescence polarization competition binding, E. coli PBP3
T1 construct: made in house
Method in brief: (§1)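 Purified PBP was preincubated with inhibitor (E. coli PBP3 1.5 μM, 30 min; P. aeruginosa PBP3 0.75 μM, A. baumannii PBP3 0.2 μM and PBP1a 1 μM, 15 min), then Bocillin-FL (0.1 μM; 0.05 μM for PBP1a) added and FP read up to 60 min. EC50 = 50% loss of bound probe.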

[5] = system: N. gonorrhoeae WHO G; assay: Liquid broth MIC in Fastidious broth; conditions: Neisseria gonorrhoeae, read-out: Minimum Inhibitory Concentration, WHO G
[6] = target: T2, PBP3 from Pseudomonas aeruginosa (PAO1) (Pseudomonas aeruginosa, UniProt G3XD46); assay: Bocillin-FL fluorescence polarization competition binding, P. aeruginosa PBP3; conditions: Binding affinity to P. aeruginosa PBP3; fluorescence polarization competition binding assay using Bocillin-FL; read-out: P. aeruginosa PBP3 Potency
T2 construct: made in house
Method in brief: as §1

[7] = system: N. gonorrhoeae WHO Z; assay: Liquid broth MIC in Fastidious broth; conditions: Neisseria gonorrhoeae, read-out: Minimum Inhibitory Concentration, WHO Z
[8] = system: P. aeruginosa (ΔmexAB-oprM); assay: Broth microdilution MIC in iron-depleted CAMHB (IDM); format: cell-based; conditions: Pseudomonas aeruginosa; iron-depleted CAMHB (IDM); […]; read-out: Minimum inhibitory concentration, P. aeruginosa ΔmexAB-oprM
[9] = system: N. gonorrhoeae FA1090; assay: Liquid broth MIC in Fastidious broth; conditions: Neisseria gonorrhoeae, FA1090, read-out: Minimum Inhibitory Concentration, FA 1090
[10] = system: B. humptydooensis ATCC BAA-2767; assay: microbe, parasite or virus in culture; format: cell-based; conditions: Burkholderia humptydooensis, ATCCBAA2767, read-out: Minimum inhibitory concentration (MIC), B. humptydooensis ATCC BAA-2767
[11] = system: N. gonorrhoeae WHO L; assay: Liquid broth MIC in Fastidious broth; conditions: Neisseria gonorrhoeae, read-out: Minimum Inhibitory Concentration, WHO L
[12] = system: N. gonorrhoeae MS11; assay: Liquid broth MIC in Fastidious broth; conditions: Neisseria gonorrhoeae, MS11, read-out: Minimum Inhibitory Concentration, MS11
[13] = system: A. baumannii ATCC 19606; assay: microbe, parasite or virus in culture; format: cell-based; conditions: Acinetobacter baumannii, ATCC19606, read-out: MIC, A. baumannii ATCC 19606
[14] = system: B. thailandensis ATCC 700388; assay: microbe, parasite or virus in culture; format: cell-based; conditions: Burkholderia thailandensis, ATCC700388, read-out: Minimum inhibitory concentration (MIC), B. thailandensis ATCC 700388
[15] = system: N. gonorrhoeae CDC-0197; assay: Liquid broth MIC in Fastidious broth; conditions: Neisseria gonorrhoeae, CDC0197, read-out: Minimum Inhibitory Concentration, CDC-0197

T2 sequence (G3XD46 whole entry): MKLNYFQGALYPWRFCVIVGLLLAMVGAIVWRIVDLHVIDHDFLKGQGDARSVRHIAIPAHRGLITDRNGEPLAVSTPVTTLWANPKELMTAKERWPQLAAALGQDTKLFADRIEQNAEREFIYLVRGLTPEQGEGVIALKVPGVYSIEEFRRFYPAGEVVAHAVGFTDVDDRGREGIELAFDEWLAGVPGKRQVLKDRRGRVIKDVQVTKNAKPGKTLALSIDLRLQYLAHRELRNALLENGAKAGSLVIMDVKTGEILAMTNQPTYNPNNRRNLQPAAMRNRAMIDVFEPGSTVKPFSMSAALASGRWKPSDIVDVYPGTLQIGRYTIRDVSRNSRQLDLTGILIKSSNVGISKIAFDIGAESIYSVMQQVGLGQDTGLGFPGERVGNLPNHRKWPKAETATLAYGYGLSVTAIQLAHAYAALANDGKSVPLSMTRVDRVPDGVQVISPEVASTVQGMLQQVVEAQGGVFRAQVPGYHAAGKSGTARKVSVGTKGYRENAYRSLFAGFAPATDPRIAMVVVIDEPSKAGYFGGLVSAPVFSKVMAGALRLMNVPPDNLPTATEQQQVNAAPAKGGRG
T1 sequence (P0AD68 1-577): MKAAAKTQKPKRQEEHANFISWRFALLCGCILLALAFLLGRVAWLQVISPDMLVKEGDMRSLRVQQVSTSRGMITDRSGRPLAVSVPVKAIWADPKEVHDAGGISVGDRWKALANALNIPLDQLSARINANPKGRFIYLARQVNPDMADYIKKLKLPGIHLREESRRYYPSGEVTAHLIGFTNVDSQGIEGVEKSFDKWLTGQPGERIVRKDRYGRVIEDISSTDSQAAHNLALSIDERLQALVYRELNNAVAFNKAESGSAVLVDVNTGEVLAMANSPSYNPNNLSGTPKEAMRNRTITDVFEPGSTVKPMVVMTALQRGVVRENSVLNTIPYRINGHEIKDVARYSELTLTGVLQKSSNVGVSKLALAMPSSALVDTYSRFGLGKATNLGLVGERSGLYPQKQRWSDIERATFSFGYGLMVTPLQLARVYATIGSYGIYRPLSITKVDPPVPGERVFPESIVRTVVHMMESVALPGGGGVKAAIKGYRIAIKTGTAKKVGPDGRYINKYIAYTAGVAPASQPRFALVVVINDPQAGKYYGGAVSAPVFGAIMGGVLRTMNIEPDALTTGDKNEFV

SMILES | MIC [1] | MIC [2] | MIC [3] | EC50 [4] | MIC [5] | IC50 [6] | MIC [7] | MIC [8] | MIC [9] | MIC [10] | MIC [11] | MIC [12] | MIC [13] | MIC [14] | MIC [15]
O=C(NCCCN1CCN(C(=O)NC(C(=O)N[C@H]2Cc3ccc(F)c(C(=O)O)c3OB2O)c2cc(F)c(O)c(O)c2Cl)C1=O)c1ccncc1 (stereo partly drawn) [Example 256, (3R)-3-(2-(2-chloro-5-fluoro-3,4-dihydroxyphenyl)-2-(3-(3-(isonicotinamido)propyl)-2-oxoimidazolidine-1-carboxamido)acetamido)-7-fluoro-2-hydroxy-3,4-dihydro-2H-benzo[e][1,2]oxaborinine-8-carboxylic acid] | < 1 µg/mL | 16 to 32 µg/mL (≈ 22.3 to 44.6 µM) | 2 to 4 µg/mL (≈ 2.79 to 5.58 µM) | 10 to 50 µM | 16 to 32 µg/mL (≈ 22.3 to 44.6 µM) | < 10 µM | 16 to 32 µg/mL (≈ 22.3 to 44.6 µM) | < 1 µg/mL | 4 to 8 µg/mL (≈ 5.58 to 11.2 µM) | < 1 µg/mL | > 64 µg/mL | > 64 µg/mL | < 1 µg/mL | < 1 µg/mL | > 64 µg/mL
O=C(NCCCN1CCN(C(=O)NC(C(=O)N[C@H]2Cc3ccc(F)c(C(=O)O)c3OB2O)c2cc(F)c(O)c(O)c2Cl)C1=O)c1nccs1 (stereo partly drawn) [Example 257, (3R)-3-(2-(2-chloro-5-fluoro-3,4-dihydroxyphenyl)-2-(2-oxo-3-(3-(thiazole-2-carboxamido)propyl)imidazolidine-1-carboxamido)acetamido)-7-fluoro-2-hydroxy-3,4-dihydro-2H-benzo[e][1,2]oxaborinine-8-carboxylic acid] | < 1 µg/mL | > 64 µg/mL | 2 to 4 µg/mL (≈ 2.77 to 5.53 µM) | 10 to 50 µM | > 64 µg/mL | < 10 µM | 16 to 32 µg/mL (≈ 22.1 to 44.3 µM) | < 1 µg/mL | 4 to 8 µg/mL (≈ 5.53 to 11.1 µM) | 2 to 4 µg/mL (≈ 2.77 to 5.53 µM) | > 64 µg/mL | 16 to 32 µg/mL (≈ 22.1 to 44.3 µM) | < 1 µg/mL | < 1 µg/mL | > 64 µg/mL
O=C(NCCCN1CCN(C(=O)N[C@@H](C(=O)N[C@H]2Cc3ccc(F)c(C(=O)O)c3OB2O)c2cc(F)c(O)c(O)c2Cl)C1=O)Nc1cccc(O)c1 [Example 258, (R)-3-((R)-2-(2-chloro-5-fluoro-3,4-dihydroxyphenyl)-2-(3-(3-(3-(3-hydroxyphenyl)ureido)propyl)-2-oxoimidazolidine-1-carboxamido)acetamido)-7-fluoro-2-hydroxy-3,4-dihydro-2H-benzo[e][1,2]oxaborinine-8-carboxylic acid] | < 1 µg/mL | 4 to 8 µg/mL (≈ 5.36 to 10.7 µM) | 2 to 4 µg/mL (≈ 2.68 to 5.36 µM) | < 10 µM | 4 to 8 µg/mL (≈ 5.36 to 10.7 µM) | < 10 µM | 4 to 8 µg/mL (≈ 5.36 to 10.7 µM) | < 1 µg/mL | 1 to 2 µg/mL (≈ 1.34 to 2.68 µM) | < 1 µg/mL | > 64 µg/mL | 16 to 32 µg/mL (≈ 21.4 to 42.8 µM) | < 1 µg/mL | < 1 µg/mL | 16 to 32 µg/mL (≈ 21.4 to 42.8 µM)
O=C(NCCCN1CCN(C(=O)NC(C(=O)N[C@H]2Cc3ccc(F)c(C(=O)O)c3OB2O)c2cc(F)c(O)c(O)c2Cl)C1=O)Nc1cccnc1 (stereo partly drawn) [Example 259, (3R)-3-(2-(2-chloro-5-fluoro-3,4-dihydroxyphenyl)-2-(2-oxo-3-(3-(3-(pyridin-3-yl)ureido)propyl)imidazolidine-1-carboxamido)acetamido)-7-fluoro-2-hydroxy-3,4-dihydro-2H-benzo[e][1,2]oxaborinine-8-carboxylic acid] | < 1 µg/mL | 16 to 32 µg/mL (≈ 21.9 to 43.7 µM) | < 1 µg/mL | < 10 µM | 16 to 32 µg/mL (≈ 21.9 to 43.7 µM) | < 10 µM | 16 to 32 µg/mL (≈ 21.9 to 43.7 µM) | < 1 µg/mL | 1 to 2 µg/mL (≈ 1.37 to 2.73 µM) | < 1 µg/mL | > 64 µg/mL | 16 to 32 µg/mL (≈ 21.9 to 43.7 µM) | < 1 µg/mL | < 1 µg/mL | 16 to 32 µg/mL (≈ 21.9 to 43.7 µM)
O=C(NCCS(=O)(=O)N1CCN(C(=O)NC(C(=O)N[C@H]2Cc3ccc(F)c(C(=O)O)c3OB2O)c2cc(F)c(O)c(O)c2Cl)C1=O)c1cccc(O)c1 (stereo partly drawn) [Example 261, (3R)-3-(2-(2-chloro-5-fluoro-3,4-dihydroxyphenyl)-2-(3-((2-(3-hydroxybenzamido)ethyl)sulfonyl)-2-oxoimidazolidine-1-carboxamido)acetamido)-7-fluoro-2-hydroxy-3,4-dihydro-2H-benzo[e][1,2]oxaborinine-8-carboxylic acid] | < 1 µg/mL | 16 to 32 µg/mL (≈ 20.5 to 40.9 µM) | 2 to 4 µg/mL (≈ 2.56 to 5.12 µM) | < 10 µM | 16 to 32 µg/mL (≈ 20.5 to 40.9 µM) | < 10 µM | 4 to 8 µg/mL (≈ 5.12 to 10.2 µM) | < 1 µg/mL | 4 to 8 µg/mL (≈ 5.12 to 10.2 µM) | 2 to 4 µg/mL (≈ 2.56 to 5.12 µM) | > 64 µg/mL | 16 to 32 µg/mL (≈ 20.5 to 40.9 µM) | < 1 µg/mL | 2 to 4 µg/mL (≈ 2.56 to 5.12 µM) | 16 to 32 µg/mL (≈ 20.5 to 40.9 µM)
O=C(NCCS(=O)(=O)N1CCN(C(=O)NC(C(=O)N[C@H]2Cc3ccc(F)c(C(=O)O)c3OB2O)c2cc(F)c(O)c(O)c2Cl)C1=O)c1cccnc1 (stereo partly drawn) [Example 262, (3R)-3-(2-(2-chloro-5-fluoro-3,4-dihydroxyphenyl)-2-(3-((2-(nicotinamido)ethyl)sulfonyl)-2-oxoimidazolidine-1-carboxamido)acetamido)-7-fluoro-2-hydroxy-3,4-dihydro-2H-benzo[e][1,2]oxaborinine-8-carboxylic acid] | < 1 µg/mL | 16 to 32 µg/mL (≈ 20.9 to 41.7 µM) | < 1 µg/mL | < 10 µM | 16 to 32 µg/mL (≈ 20.9 to 41.7 µM) | < 10 µM | 16 to 32 µg/mL (≈ 20.9 to 41.7 µM) | < 1 µg/mL | 4 to 8 µg/mL (≈ 5.22 to 10.4 µM) | < 1 µg/mL | > 64 µg/mL | 16 to 32 µg/mL (≈ 20.9 to 41.7 µM) | < 1 µg/mL | < 1 µg/mL | 16 to 32 µg/mL (≈ 20.9 to 41.7 µM)
O=C(NCCS(=O)(=O)N1CCN(C(=O)N[C@H](C(=O)N[C@H]2Cc3ccc(F)c(C(=O)O)c3OB2O)c2cc(F)c(O)c(O)c2Cl)C1=O)c1nccs1 [Example 263, (R)-3-((S)-2-(2-chloro-5-fluoro-3,4-dihydroxyphenyl)-2-(2-oxo-3-((2-(thiazole-2-carboxamido)ethyl)sulfonyl)imidazolidine-1-carboxamido)acetamido)-7-fluoro-2-hydroxy-3,4-dihydro-2H-benzo[e][1,2]oxaborinine-8-carboxylic acid] | 32 to 64 µg/mL (≈ 41.4 to 82.8 µM) | > 64 µg/mL | 32 to 64 µg/mL (≈ 41.4 to 82.8 µM) | > 250 µM | > 64 µg/mL | 10 to 50 µM | > 64 µg/mL | 8 to 16 µg/mL (≈ 10.4 to 20.7 µM) | > 64 µg/mL | 8 to 16 µg/mL (≈ 10.4 to 20.7 µM) | > 64 µg/mL | > 64 µg/mL | 8 to 16 µg/mL (≈ 10.4 to 20.7 µM) | 8 to 16 µg/mL (≈ 10.4 to 20.7 µM) | > 64 µg/mL

— patent US20240270762A1, “PENICILLIN-BINDING PROTEIN INHIBITORS” (priority 2021, published 2024)
